The first test has as its target T1, Rat brain protein farnesyltransferase (Rattus norvegicus, UniProt Q02293+Q04631).
T1 construct: Rat brain protein farnesyltransferase activity is measured; from tissue; host or cells: rat brain
In words: % inhibition of farnesylation, scintillation proximity assay with biotin-K Ras B fragment. It is filed as biochemical. Particulars: Table 1; 1 × 10^-5 M. The method, boiled down:
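Rat brain enzyme, purified through three steps, in a scintillation proximity assay kit with biotin-K Ras B fragment substrate at 0.1 mM final. Value is % inhibition of farnesylation.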
T1 sequence (Q02293 whole entry, one chain of several): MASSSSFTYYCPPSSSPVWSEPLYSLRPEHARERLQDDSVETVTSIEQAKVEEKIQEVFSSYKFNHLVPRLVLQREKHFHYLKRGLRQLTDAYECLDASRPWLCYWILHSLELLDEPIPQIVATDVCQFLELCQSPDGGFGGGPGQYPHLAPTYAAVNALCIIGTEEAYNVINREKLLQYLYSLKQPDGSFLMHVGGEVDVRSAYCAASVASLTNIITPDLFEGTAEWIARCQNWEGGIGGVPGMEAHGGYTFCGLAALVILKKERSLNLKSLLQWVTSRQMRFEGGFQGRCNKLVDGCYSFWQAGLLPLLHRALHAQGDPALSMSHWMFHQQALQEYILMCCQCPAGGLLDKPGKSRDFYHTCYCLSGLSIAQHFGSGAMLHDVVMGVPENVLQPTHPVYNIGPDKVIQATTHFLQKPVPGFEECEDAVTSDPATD
Regarding `CSCC[C@H](NC(=O)c1ccc(CNCC(C)(C)CN(C)C)cc1-c1ccccc1)C(=O)O` [Example 639], the “% inhibition at 1 × 10^-5 M” value is 44%. Take `COc1cc2c(cc1OC)C(CNCc1ccc(C(=O)N[C@@H](CCSC)C(=O)O)c(-c3ccccc3)c1)=CC(C1CCCCC1)C2` (some centres unmarked) [Example 659]: the “% inhibition at 1 × 10^-5 M” value worked out at 55%.

Consider `CSCC[C@H](NC(=O)c1ccc(CNCCC2CCCCC2)cc1-c1ccccc1)C(=O)O` [Example 663], for which the “% inhibition at 1 × 10^-5 M” value was determined as 43%. On the same count and under the same terms, under `C=C[C@@H](CC1CCCCC1)NCc1ccc(C(=O)N[C@@H](CCSC)C(=O)O)c(-c2ccccc2)c1` [Example 664] stands 75%; under `CSCC[C@H](NC(=O)c1ccc(CNc2ccccc2N(C)C)cc1-c1ccccc1)C(=O)O` [Example 672], 48%; under `CSCC[C@H](NC(=O)c1ccc(CNc2cccc(C)c2)cc1-c1ccccc1)C(=O)O` [Example 674], 40%. As for `CSCC[C@H](NC(=O)c1ccc(CNc2cccc(O)c2)cc1-c1ccccc1)C(=O)O` [Example 676], the “% inhibition at 1 × 10^-5 M” value is reported as 76%. For the compound `CSCC[C@H](NC(=O)c1ccc(CNc2cccc(OC(F)(F)F)c2)cc1-c1ccccc1)C(=O)O` [Example 678], the “% inhibition at 1 × 10^-5 M” value was 73%. In the case of `CSCC[C@H](NC(=O)c1ccc(CNc2cccc(CO)c2)cc1-c1ccccc1)C(=O)O` [Example 680], the “% inhibition at 1 × 10^-5 M” value amounted to 58%. As for `CSCC[C@H](NC(=O)c1ccc(CNc2cccc(N(C)C)c2)cc1-c1ccccc1)C(=O)O` [Example 683], the “% inhibition at 1 × 10^-5 M” value was 57%.

Consider `CSCC[C@H](NC(=O)c1ccc(CNc2cccc(CC(=O)O)c2)cc1-c1ccccc1)C(=O)O` [Example 684], for which the “% inhibition at 1 × 10^-5 M” value was found to be 48%. Same read-out and setting: then `CSCC[C@H](NC(=O)c1ccc(CNc2cccc(CCC(=O)O)c2)cc1-c1ccccc1)C(=O)O` [Example 685], with 55%; and `CSCC[C@H](NC(=O)c1ccc(CNc2cccc(Oc3ccccc3)c2)cc1-c1ccccc1)C(=O)O` [Example 686], with 48%. On the same count and under the same terms, then `CSCC[C@H](NC(=O)c1ccc(CNc2ccc(F)cc2)cc1-c1ccccc1)C(=O)O` [Example 687], with 78%; and `CSCC[C@H](NC(=O)c1ccc(CNc2ccc(I)cc2)cc1-c1ccccc1)C(=O)O` [Example 688], with 71%; and `CSCC[C@H](NC(=O)c1ccc(CNc2ccc(O)cc2)cc1-c1ccccc1)C(=O)O` [Example 689], with 73%. As for `COc1ccc(NCc2ccc(C(=O)N[C@@H](CCSC)C(=O)O)c(-c3ccccc3)c2)cc1` [Example 690], the “% inhibition at 1 × 10^-5 M” value amounted to 61%.

On to `CSCC[C@H](NC(=O)c1ccc(CNc2ccc(C(C)C)cc2)cc1-c1ccccc1)C(=O)O` [Example 692], for which the “% inhibition at 1 × 10^-5 M” value came out at 74%.

With `CSCC[C@H](NC(=O)c1ccc(CNc2ccc(C3CCCCC3)cc2)cc1-c1ccccc1)C(=O)O` [Example 699], the “% inhibition at 1 × 10^-5 M” value is on record as 74%. With `CSCC[C@H](NC(=O)c1ccc(CNc2ccc(-c3ccccc3)cc2)cc1-c1ccccc1)C(=O)O` [Example 700], the “% inhibition at 1 × 10^-5 M” value worked out at 68%. On to `CSCC[C@H](NC(=O)c1ccc(CNc2ccc(Oc3ccccc3)cc2)cc1-c1ccccc1)C(=O)O` [Example 701], for which the “% inhibition at 1 × 10^-5 M” value is reported as 64%.

Consider `CSCC[C@H](NC(=O)c1ccc(CNc2ccc(C(=O)c3ccccc3)cc2)cc1-c1ccccc1)C(=O)O` [Example 702], for which the “% inhibition at 1 × 10^-5 M” value amounted to 79%. As for `CSCC[C@H](NC(=O)c1ccc(CNc2ccc(C)c(C)c2)cc1-c1ccccc1)C(=O)O` [Example 704], the “% inhibition at 1 × 10^-5 M” value is 67%.

Regarding `CSCC[C@H](NC(=O)c1ccc(CNc2ccc3c(c2)CCC3)cc1-c1ccccc1)C(=O)O` [Example 705], the “% inhibition at 1 × 10^-5 M” value is reported as 72%. Consider `CSCC[C@H](NC(=O)c1ccc(CNc2ccc3c(c2)Cc2ccccc2-3)cc1-c1ccccc1)C(=O)O` [Example 706], for which the “% inhibition at 1 × 10^-5 M” value worked out at 53%. Consider `CSCC[C@H](NC(=O)c1ccc(CNc2ccc3ncccc3c2)cc1-c1ccccc1)C(=O)O` [Example 708], for which the “% inhibition at 1 × 10^-5 M” value is listed as 76%.

For `CSCC[C@H](NC(=O)c1ccc(CNc2cc(C)cc(C)c2)cc1-c1ccccc1)C(=O)O` [Example 709], the “% inhibition at 1 × 10^-5 M” value was 55%.

On to `CSCC[C@H](NC(=O)c1ccc(CNc2cc(C(=O)O)cc(C(=O)O)c2)cc1-c1ccccc1)C(=O)O` [Example 710], for which the “% inhibition at 1 × 10^-5 M” value was 45%. In the case of `CCN(Cc1ccc(C(=O)N[C@@H](CCSC)C(=O)O)c(-c2ccccc2)c1)Cc1cc([N+](=O)[O-])ccc1O` [Example 711], the “% inhibition at 1 × 10^-5 M” value came out at 46%. Regarding `CSCC[C@H](NC(=O)c1ccc(CNCc2cc(Cl)cc(Cl)c2)cc1-c1ccccc1)C(=O)O` [Example 712], the “% inhibition at 1 × 10^-5 M” value stood at 69%.

The same test, now with this note: Table 2; 1 × 10^-6 M.
On to `CSCC[C@H](NC(=O)c1ccc(CNCCS)cc1-c1ccccc1)C(=O)O` [Example 626], for which the “% inhibition at 1 × 10^-6 M” value is listed as 61%. On to `CSCC[C@H](NC(=O)c1ccc(CNCCSC(C)(C)C)cc1-c1ccccc1)C(=O)O` [Example 627], for which the “% inhibition at 1 × 10^-6 M” value turned out to be 85%.

Regarding `CSCC[C@H](NC(=O)c1ccc(CNCC(O)CO)cc1-c1ccccc1)C(=O)O` (some centres unmarked) [Example 632], the “% inhibition at 1 × 10^-6 M” value is listed as 43%. In the case of `CSCCC(CO)NCc1ccc(C(=O)N[C@@H](CCSC)C(=O)O)c(-c2ccccc2)c1` (some centres unmarked) [Example 633], the “% inhibition at 1 × 10^-6 M” value was 32%. On to `CSCC[C@H](NC(=O)c1ccc(CNCCN(C(C)C)C(C)C)cc1-c1ccccc1)C(=O)O` [Example 636], for which the “% inhibition at 1 × 10^-6 M” value is recorded as 72%. Still for that read-out and setting: under `CSCC[C@H](NC(=O)c1ccc(CNCCN2CCCC2)cc1-c1ccccc1)C(=O)O` [Example 641] stands 34%. For `CSCC[C@H](NC(=O)c1ccc(CNc2ccccc2F)cc1-c1ccccc1)C(=O)O` [Example 642], the “% inhibition at 1 × 10^-6 M” value amounted to 48%. The same measure, in the same setting: under `CSCC[C@H](NC(=O)c1ccc(CNc2ccccc2C(N)=O)cc1-c1ccccc1)C(=O)O` [Example 644] stands 54%; under `CSCC[C@H](NC(=O)c1ccc(CNc2ccccc2Oc2ccccc2)cc1-c1ccccc1)C(=O)O` [Example 645], 37%; under `CCOC(=O)c1ccc(NCc2ccc(C(=O)N[C@@H](CCSC)C(=O)O)c(-c3ccccc3)c2)cc1` [Example 646], 58%. Consider `CSCC[C@H](NC(=O)c1ccc(CN(CCC#N)Cc2ccccc2)cc1-c1ccccc1)C(=O)O` [Example 649], for which the “% inhibition at 1 × 10^-6 M” value was found to be 86%. Take `COc1ccccc1CNCc1ccc(C(=O)N[C@@H](CCSC)C(=O)O)c(-c2ccccc2)c1` [Example 650]: the “% inhibition at 1 × 10^-6 M” value is given as 68%. As for `COc1cccc(CNCc2ccc(C(=O)N[C@@H](CCSC)C(=O)O)c(-c3ccccc3)c2)c1` [Example 652], the “% inhibition at 1 × 10^-6 M” value was 41%. On the same count and under the same terms, then `CSCC[C@H](NC(=O)c1ccc(CNCc2ccc(N)cc2)cc1-c1ccccc1)C(=O)O` [Example 653], with 62%; and `COc1ccc(CNCc2ccc(C(=O)N[C@@H](CCSC)C(=O)O)c(-c3ccccc3)c2)c(OC)c1` [Example 655], with 35%; and `CSCCC(NC(=O)c1ccc(CNC(CO)c2ccccc2)cc1-c1ccccc1)C(=O)O` (centres unmarked) [Example 657], with 32%. `CSCCC(NC(=O)c1ccc(CNC(CO)c2ccccc2)cc1-c1ccccc1)C(=O)O` (centres unmarked) [Example 658]: the “% inhibition at 1 × 10^-6 M” value was 73%. In the case of `CSCC[C@H](NC(=O)c1ccc(CNCC(O)c2cccc(O)c2)cc1-c1ccccc1)C(=O)O` (some centres unmarked) [Example 661], the “% inhibition at 1 × 10^-6 M” value is given as 45%.

For `CSCC[C@H](NC(=O)c1ccc(CNC(CO)Cc2ccc(Cl)cc2)cc1-c1ccccc1)C(=O)O` (some centres unmarked) [Example 662], the “% inhibition at 1 × 10^-6 M” value is listed as 68%. The same measure, in the same setting: then `CSCC[C@H](NC(=O)c1ccc(CN[C@@H](/C=C\CC(C)C)CC2CCCCC2)cc1-c1ccccc1)C(=O)O` [Example 665], with 55%.

As to `CSCC[C@H](NC(=O)c1ccc(CN[C@H](/C=C\CC(C)C)CC2CCCCC2)cc1-c1ccccc1)C(=O)O` [Example 666], the “% inhibition at 1 × 10^-6 M” value was found to be 82%. On the same count and under the same terms, under `CSCC[C@H](NC(=O)c1ccc(CNCCSc2ccccc2)cc1-c1ccccc1)C(=O)O` [Example 667] stands 83%; under `CSCC[C@H](NC(=O)c1ccc(CNc2ccccc2CCO)cc1-c1ccccc1)C(=O)O` [Example 671], 36%; under `CSCC[C@H](NC(=O)c1ccc(CNc2ccccc2N2CCCCC2)cc1-c1ccccc1)C(=O)O` [Example 673], 59%. With `CSCC[C@H](NC(=O)c1ccc(CNc2cccc(I)c2)cc1-c1ccccc1)C(=O)O` [Example 677], the “% inhibition at 1 × 10^-6 M” value is on record as 37%. As for `CSCC[C@H](NC(=O)c1ccc(CNc2cccc(C(N)=O)c2)cc1-c1ccccc1)C(=O)O` [Example 682], the “% inhibition at 1 × 10^-6 M” value was found to be 31%.

Take `CSCC[C@H](NC(=O)c1ccc(CNc2ccc(OC(F)(F)F)cc2)cc1-c1ccccc1)C(=O)O` [Example 691]: the “% inhibition at 1 × 10^-6 M” value is on record as 34%. Turning to `CSCC[C@H](NC(=O)c1ccc(CNc2ccc(C(O)(C(F)(F)F)C(F)(F)F)cc2)cc1-c1ccccc1)C(=O)O` [Example 693], the “% inhibition at 1 × 10^-6 M” value stood at 53%. As to `CSCC[C@H](NC(=O)c1ccc(CNc2ccc(CCO)cc2)cc1-c1ccccc1)C(=O)O` [Example 694], the “% inhibition at 1 × 10^-6 M” value came to 45%.

Turning to `CSCC[C@H](NC(=O)c1ccc(CNc2ccc(N3CCCCC3)cc2)cc1-c1ccccc1)C(=O)O` [Example 697], the “% inhibition at 1 × 10^-6 M” value is listed as 39%. With `CSCC[C@H](NC(=O)c1ccc(CNc2ccc(-c3nc4ccccc4s3)cc2)cc1-c1ccccc1)C(=O)O` [Example 703], the “% inhibition at 1 × 10^-6 M” value is recorded as 40%.

Still in this test, the particulars now being: Table 3; 1 × 10^-7 M.
With `CSCC[C@H](NC(=O)c1ccc(CN[C@H](CSc2ccccc2)CC2CCCCC2)cc1-c1ccccc1C)C(=O)O` [Example 623], the “% inhibition at 1 × 10^-7 M” value stood at 96%.

(Values after patent US6204293A, “Inhibitors of protein isoprenyl transferases” (University of Pittsburgh, priority 1998, dated 2001).)
